According to patent US11932850B2, “Cancer chemoprevention with STAT3 blockers” (Jill M. Siegfried, LLC, priority 2018, dated 2024):

What was measured:
[1] = test system: Ki-67, p-STAT3, NF-κB in H1975 xenografts; assay: IHC of H1975 xenografts after 5 daily iv injections; format: in vivo, nude mice
Protocol: Because tumors treated for several weeks with the STAT3 decoy were largely composed of debris (as illustrated in FIG. 11), xenografts were examined after only 5 daily tail vein injections to determine what cellular changes were induced prior to collapse of the intracellular tumor structure. […] Tumors derived from H1975 xenografs were analyzed by immunohistochemical staining for p-STAT3 after 5 daily iv injections of either STAT3 decoy or mutant decoy. […] This effect is quantified in FIG. 9B.
Images were captured at 40× magnification. A shift from 41% of cells was observed and scored as high-grade staining with CS3M treatment to 13% with high-grade staining in the presence of CS3D, with corresponding increases in moderate- and low-grade staining in the STAT3 decoy treated group (FIG. 12B). […] Bright field images were captured at 40× magnification. Frequency of high-grade staining for p-STAT3 differed between CS3D and CS3M treatment groups (23% in CS3D-treated and 51% in CS3M treated, with corresponding increase in low-grade staining in presence of the active decoy (FIG. 9B). Significant degradation of p-STAT3 protein was detected by IHC in tumors was observed after treatment with CS3D. Percent of high staining fields was reduced from 48% to 22% while percent of fields with low staining increased, P<0.001 (FIG. 9B).
Immunohistochemical analysis: Tumors were excised for immunohistochemical (IHC) staining; 5-μm (micron) sections were cut from formalin-fixed paraffin-embedded tissue blocks, deparaffinized and rehydrated using successive washes of xylene followed by ethanol. Antigen retrieval was performed in a microwave oven (for 20 minutes) in an unmasking solution containing sodium citrate buffer followed by peroxidase blocking in 3% hydrogen peroxide. The sections were incubated in ABC blocking buffer (Vector laboratories Inc, Burlingame, California) for 1 hour at room temperature. Sections were then stained with H&E (hematoxylin and eosin) or subjected to sequential incubations with different primary antibodies and peroxidase-conjugated goat anti-rabbit secondary antibodies. The following primary antibodies were used (at the indicated dilutions): cleaved caspase-3 (#9664, Cell Signaling, 1:300), p-STAT3 (#9145, Cell Signaling, 1:400), Ki67 (#ab15580, Abcam, 1:1000). Sections were developed with DAB and counterstained with hematoxylin. Bright field microscopy was performed using Leica DM 4000 B LED microscope and images were captured at 20× and 40× magnification using LASv4.7 software. IHC analysis was done as a blinded study with 100 images from each treatment group graded as low, moderate, or high. Staining was graded as low (<30% positive cells per field, scored as 1), moderate (30-60% positive cells per field, scored as 2) or high (>60% positive cells per field, scored as 3).

201T cells = assay: Soft agar colony forming assay, 201T; format: cell-based, human
From the text: 1 hr after treatment with EGF.
Following the transfection protocol described above, cells transfected with either CS3D or CS3M were detached from the plate using Trypsin-EDTA (Life Technologies) and seeded at a density of 2×10^4 cells/well (in a 6-well plate) in soft agar to determine the ability of cells to grow in an anchorage-independent setting. Sea Plaque Agarose (Lonza—Rockland, Maine) was used to prepare 0.8% base agarose layer and a 0.48% upper agarose layer containing the transfected cells. 1 ml of appropriate growth media was added into each well and incubated at growth conditions of 37° C. with 5% CO2. Media was replaced every 3-4 days and colony formation was monitored. After 15-20 days, the media was aspirated, and wells were incubated with crystal violet in 10% formalin for 1 h. Using a dissecting scope, colonies were photographed in a 6-well plate (with 4 quadrants/well) using ImageJ software analysis to automatically count colonies, using 35 pixels as a cut-off.

201T xenografts = assay: 201T NSCLC xenograft tumor growth; format: in vivo, nude mice
Protocol: Based on the in vitro effects of CS3D, antitumor effects were evaluated in mice harboring established NSCLC xenografts (10 tumors/group). When tumors reached 200 mm3, mice were given daily intravenous injections (tail vein) of CS3D or CS3M (5 mg/kg/d), 5 days per week, and tumor growth was monitored for 14-20 days. CS3D caused a significant and robust tumor growth inhibition in 201T- and H1975-derived xenografts compared to treatment with CS3M.
FIGS. 7A and 7B show CS3D suppresses NSCLC xenograft tumor growth. Intravenous delivery of CS3D inhibits tumor growth in both wild-type (FIG. 7A, 201T) and mutant EGFR T790M (FIG. 7B, H1975) xenografts. Approximately 1×10^6 cells were inoculated subcutaneously in the flanks of nude mice. Following the development of palpable tumors (about […]), mice were randomized and given daily injections of either CS3D or CS3M (5 mg/kg/day; 10 tumors/group). Experiments were done twice as biological replicates. Tumor volumes were recorded every other day while animal weights were also monitored during the course of the treatment. […]
All studies were approved by the University of Minnesota Institutional Animal Care and Use Committee and were carried out in accordance with institutional guidelines for animal care. […] Volumes were calculated from the formula V=(Length×Width^2)/2. […]

[2] = test system: Myc and Bcl-xL mRNA in NSCLC cells; conditions: 300 nM one transfection, 10 ng/ml EGF, 1 hr after EGF

CS3D (DNA GATTTACGGGAAATGCSCATTTCCC; cyclic decoy with two hexaethylene glycol linkers, further chemistry not given here)
Ki-67 high-grade staining ([1]; H1975 xenografts, 5 daily injections): 13%
frequency of high-grade staining for p-STAT3 ([1]; H1975 xenografts, 5 daily iv injections): 23%
percent of high staining fields for p-STAT3 ([1]; H1975 xenografts, second statement in b134 (FIG. 9B)): 22%
induction of apoptosis at early time point ([1]; after 5 daily injections (not shown)): no induction of apoptosis
NF-κB nuclear protein ([1]; after five days of treatment): No change
disruption of anchorage-independent growth (201T cells; 300 nM single transfection, at 20 days, 201T, compared to CS3M): 50%
reduction of colony formation in soft agar (201T cells; one transfection, 201T (FIG. 4A)): 55%
reduction in tumor growth (tumor volume) (201T xenografts; 201T xenograft, 5 mg/kg/d iv, 5 days per week, compared to CS3M): 96.5%
tumor growth inhibition at 14 days (201T xenografts; both KRAS WT cell lines (201T and H1975), as reported (Njatcha et al 2017)): over 85%
reduction of Bcl-Xl mRNA expression in response to EGF [2]: ≥ 60%
reduction of c-Myc mRNA expression in response to EGF [2]: ≥ 60%
